Reference: PubChem BioAssay (NCI)
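Here, GI50 denotes the concentration required for 50% inhibition of growth. TGI: total growth inhibition.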

Assays:
Test in all cases: inhibition of tumour cell growth, NCI panel, 384-well format
[1] = test system: 786-0 renal
[2] = test system: A498 renal
[3] = test system: A549 NSCLC
[4] = test system: ACHN renal
[5] = test system: BT-549 breast
[6] = test system: CAKI-1 renal
[7] = test system: CCRF-CEM leukemia
[8] = test system: COLO 205 colon
[9] = test system: DU-145 prostate
[10] = test system: EKVX NSCLC
[11] = test system: HCC-2998 colon
[12] = test system: HCT-116 colon
[13] = test system: HCT-15 colon
[14] = test system: HL-60(TB) leukemia
[15] = test system: HOP-62 NSCLC
[16] = test system: HOP-92 NSCLC
[17] = test system: HS 578T breast
[18] = test system: HT29 colon
[19] = test system: IGROV1 ovarian
[20] = test system: K-562 leukemia
[21] = test system: KM12 colon
[22] = test system: LOX IMVI melanoma
[23] = test system: M14 melanoma
[24] = test system: MALME-3M melanoma
[25] = test system: MCF7 breast
[26] = test system: MDA-MB-231 breast
[27] = test system: MDA-MB-435 melanoma
[28] = test system: MDA-MB-468 breast
[29] = test system: MOLT-4 leukemia
[30] = test system: NCI-H226 lung
[31] = test system: NCI-H23 lung
[32] = test system: NCI-H322M lung
[33] = test system: NCI-H460 NSCLC
[34] = test system: NCI-H522 lung
[35] = test system: NCI/ADR-RES ovarian
[36] = test system: OVCAR-3 ovarian
[37] = test system: OVCAR-4 ovarian
[38] = test system: OVCAR-5 ovarian
[39] = test system: OVCAR-8 ovarian
[40] = test system: PC-3 prostate
[41] = test system: RPMI-8226 leukemia
[42] = test system: RXF 393 renal
[43] = test system: SF-268 CNS
[44] = test system: SF-295 CNS
[45] = test system: SF-539 CNS
[46] = test system: SK-MEL-2 melanoma
[47] = test system: SK-MEL-28 melanoma
[48] = test system: SK-MEL-5 melanoma
[49] = test system: SK-OV-3 ovarian
[50] = test system: SN12C renal
[51] = test system: SNB-19 CNS
[52] = test system: SNB-75 CNS
[53] = test system: SW-620 colon
[54] = test system: T-47D breast
[55] = test system: TK-10 renal
[56] = test system: U251 glioblastoma
[57] = test system: UACC-257 melanoma
[58] = test system: UACC-62 melanoma
[59] = test system: UO-31 renal

**Q.** For NC(=O)c1cccc2c(N[C@H](CN3CCC3)c3ccc(Cl)c(C(F)(F)F)c3)ncnc12, which GI50 [1] is on record?
**A.** 482 nM

**Q.** And the TGI [1]?
**A.** 1940 nM

**Q.** And the GI50 [2]?
**A.** 138 nM

**Q.** What about the TGI [2] of the same molecule?
**A.** 1520 nM

**Q.** And the GI50 [3]?
**A.** 1510 nM

**Q.** And the TGI [3]?
**A.** 6390 nM

**Q.** And the GI50 [4]?
**A.** 1950 nM

**Q.** What about the TGI [4] of the same molecule?
**A.** 12200 nM

**Q.** What about the GI50 [5] of the same molecule?
**A.** 316 nM

**Q.** And the TGI [5]?
**A.** 1520 nM

**Q.** And the GI50 [6]?
**A.** 1290 nM

**Q.** And the TGI [6]?
**A.** 3650 nM

**Q.** And the GI50 [7]?
**A.** 410 nM

**Q.** And the TGI [7]?
**A.** 1750 nM

**Q.** What about the GI50 [8] of the same molecule?
**A.** 951 nM

**Q.** What about the TGI [8] of the same molecule?
**A.** 2160 nM

**Q.** What about the GI50 [9] of the same molecule?
**A.** 2630 nM

**Q.** What about the TGI [9] of the same molecule?
**A.** 13800 nM

**Q.** And the GI50 [10]?
**A.** 1150 nM

**Q.** And the TGI [10]?
**A.** 5010 nM

**Q.** What about the GI50 [11] of the same molecule?
**A.** 1040 nM

**Q.** What about the TGI [11] of the same molecule?
**A.** 2230 nM

**Q.** And the GI50 [12]?
**A.** 1800 nM

**Q.** And the TGI [12]?
**A.** 5390 nM

**Q.** And the GI50 [13]?
**A.** 1190 nM

**Q.** And the TGI [13]?
**A.** 8430 nM

**Q.** What about the GI50 [14] of the same molecule?
**A.** 1560 nM

**Q.** What about the TGI [14] of the same molecule?
**A.** 2910 nM

**Q.** And the GI50 [15]?
**A.** 3320 nM

**Q.** And the TGI [15]?
**A.** 12000 nM

**Q.** What about the GI50 [16] of the same molecule?
**A.** 1320 nM

**Q.** What about the TGI [16] of the same molecule?
**A.** 3350 nM

**Q.** What about the GI50 [17] of the same molecule?
**A.** 750 nM

**Q.** What about the TGI [17] of the same molecule?
**A.** 2350 nM

**Q.** What about the GI50 [18] of the same molecule?
**A.** 1400 nM

**Q.** And the TGI [18]?
**A.** 2980 nM

**Q.** And the GI50 [19]?
**A.** 247 nM

**Q.** And the TGI [19]?
**A.** 1880 nM

**Q.** And the GI50 [20]?
**A.** 1640 nM

**Q.** What about the TGI [20] of the same molecule?
**A.** 3200 nM

**Q.** What about the GI50 [21] of the same molecule?
**A.** 920 nM

**Q.** What about the TGI [21] of the same molecule?
**A.** 6880 nM

**Q.** What about the GI50 [22] of the same molecule?
**A.** 2180 nM

**Q.** And the TGI [22]?
**A.** 7000 nM

**Q.** What about the GI50 [23] of the same molecule?
**A.** 1210 nM

**Q.** What about the TGI [23] of the same molecule?
**A.** 2480 nM

**Q.** And the GI50 [24]?
**A.** 457 nM

**Q.** What about the TGI [24] of the same molecule?
**A.** 1710 nM

**Q.** What about the GI50 [25] of the same molecule?
**A.** 362 nM

**Q.** And the TGI [25]?
**A.** 1860 nM

**Q.** What about the GI50 [26] of the same molecule?
**A.** 2720 nM

**Q.** What about the TGI [26] of the same molecule?
**A.** 13700 nM

**Q.** What about the GI50 [27] of the same molecule?
**A.** 1320 nM

**Q.** And the TGI [27]?
**A.** 5510 nM

**Q.** And the GI50 [28]?
**A.** 256 nM

**Q.** What about the TGI [28] of the same molecule?
**A.** 1250 nM

**Q.** And the GI50 [29]?
**A.** 88.2 nM

**Q.** And the TGI [29]?
**A.** 718 nM

**Q.** And the GI50 [30]?
**A.** 2350 nM

**Q.** What about the TGI [30] of the same molecule?
**A.** 8740 nM

**Q.** And the GI50 [31]?
**A.** 1730 nM

**Q.** And the TGI [31]?
**A.** 6240 nM

**Q.** What about the GI50 [32] of the same molecule?
**A.** 3100 nM

**Q.** What about the TGI [32] of the same molecule?
**A.** 14400 nM

**Q.** And the GI50 [33]?
**A.** 366 nM

**Q.** And the TGI [33]?
**A.** 2400 nM

**Q.** And the GI50 [34]?
**A.** 1190 nM

**Q.** And the TGI [34]?
**A.** 5700 nM

**Q.** What about the GI50 [35] of the same molecule?
**A.** 2790 nM

**Q.** And the TGI [35]?
**A.** 10300 nM

**Q.** What about the GI50 [36] of the same molecule?
**A.** 2720 nM

**Q.** And the TGI [36]?
**A.** 11200 nM

**Q.** And the GI50 [37]?
**A.** 3020 nM

**Q.** And the TGI [37]?
**A.** 12000 nM

**Q.** And the GI50 [38]?
**A.** 2790 nM

**Q.** And the TGI [38]?
**A.** 11200 nM

**Q.** What about the GI50 [39] of the same molecule?
**A.** 2560 nM

**Q.** What about the TGI [39] of the same molecule?
**A.** 11200 nM

**Q.** And the GI50 [40]?
**A.** 345 nM

**Q.** And the TGI [40]?
**A.** 3850 nM

**Q.** And the GI50 [41]?
**A.** 1200 nM

**Q.** What about the TGI [41] of the same molecule?
**A.** 2450 nM

**Q.** And the GI50 [42]?
**A.** 231 nM

**Q.** And the TGI [42]?
**A.** 1340 nM

**Q.** What about the GI50 [43] of the same molecule?
**A.** 1480 nM

**Q.** What about the TGI [43] of the same molecule?
**A.** 4200 nM

**Q.** And the GI50 [44]?
**A.** 1020 nM

**Q.** What about the TGI [44] of the same molecule?
**A.** 3220 nM

**Q.** And the GI50 [45]?
**A.** 195 nM

**Q.** What about the TGI [45] of the same molecule?
**A.** 1630 nM

**Q.** And the GI50 [46]?
**A.** 1310 nM

**Q.** And the TGI [46]?
**A.** 2660 nM

**Q.** And the GI50 [47]?
**A.** 1260 nM

**Q.** What about the TGI [47] of the same molecule?
**A.** 2690 nM

**Q.** What about the GI50 [48] of the same molecule?
**A.** 1380 nM

**Q.** And the TGI [48]?
**A.** 2690 nM

**Q.** What about the GI50 [49] of the same molecule?
**A.** 430 nM

**Q.** And the TGI [49]?
**A.** 2910 nM

**Q.** And the GI50 [50]?
**A.** 2100 nM

**Q.** And the TGI [50]?
**A.** 12600 nM

**Q.** What about the GI50 [51] of the same molecule?
**A.** 1730 nM

**Q.** And the TGI [51]?
**A.** 5200 nM

**Q.** What about the GI50 [52] of the same molecule?
**A.** 258 nM

**Q.** And the TGI [52]?
**A.** 1570 nM

**Q.** And the GI50 [53]?
**A.** 1860 nM

**Q.** What about the TGI [53] of the same molecule?
**A.** 7730 nM

**Q.** What about the GI50 [54] of the same molecule?
**A.** 199 nM

**Q.** What about the TGI [54] of the same molecule?
**A.** 1390 nM

**Q.** And the GI50 [55]?
**A.** 1250 nM

**Q.** What about the TGI [55] of the same molecule?
**A.** 3180 nM

**Q.** What about the GI50 [56] of the same molecule?
**A.** 1890 nM

**Q.** What about the TGI [56] of the same molecule?
**A.** 10400 nM

**Q.** What about the GI50 [57] of the same molecule?
**A.** 1020 nM

**Q.** What about the TGI [57] of the same molecule?
**A.** 2190 nM

**Q.** What about the GI50 [58] of the same molecule?
**A.** 980 nM

**Q.** And the TGI [58]?
**A.** 2210 nM

**Q.** And the GI50 [59]?
**A.** 1580 nM

**Q.** And the TGI [59]?
**A.** 9030 nM
